This is an account of results in PubChem BioAssay (NCI).

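Assay format: 96-well plates, 48-hour exposure. TGI denotes the concentration required for complete inhibition of growth.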

Among the test systems are DMS 114 small cell lung; DMS 273 small cell lung; M19-MEL melanoma; XF 498 CNS; HOP-18 NSCLC; RXF-631 renal.
Holding throughout (experiment): inhibition of tumour cell growth, NCI panel, 48 h

For the compound `CN(C)c1nc(N(C)C)nc(N(C)CN(C)c2ccc(Cl)cc2)n1`, the TGI with DMS 114 small cell lung, in the assay on DMS 273 small cell lung, in the assay on M19-MEL melanoma and in the assay on XF 498 CNS was greater than 100 µM throughout.

In the case of `Cc1nc2c(n1C)C(=O)c1nc(CBr)[nH]c(=O)c1C2=O`, the TGI in the assay with DMS 114 small cell lung, in the assay on DMS 273 small cell lung, in the assay on HOP-18 NSCLC and in the assay with M19-MEL melanoma was greater than 100 µM each time.

For the compound `Cc1ccc(NP(=O)(Oc2ccccc2)N(CCCl)CCCl)cc1` (stereo not drawn), the TGI in the assay with DMS 114 small cell lung, in the assay with DMS 273 small cell lung, in the assay on HOP-18 NSCLC, in the assay on M19-MEL melanoma and in the assay with RXF-631 renal was greater than 100 µM throughout.

For `CSc1nc(NC2OCC(OC(C)=O)C(OC(C)=O)C2OC(C)=O)c(N=C(C)C(C)=O)c(=O)[nH]1` (stereo not drawn), the TGI in the assay with DMS 114 small cell lung, with DMS 273 small cell lung, with HOP-18 NSCLC and in the assay with XF 498 CNS was greater than 100 µM throughout.

`CCCCCCCCCCCCCCCc1ccc(OCC(O)CO)cc1` (stereo not drawn): the TGI with DMS 114 small cell lung is 68.3 µM; in the assay on DMS 273 small cell lung, 33.3 µM; in the assay on HOP-18 NSCLC it was greater than 100 µM; in the assay on M19-MEL melanoma, 33.4 µM; in the assay with RXF-631 renal, 71.6 µM; in the assay with XF 498 CNS, 39.3 µM.
